Results published in patent publication US10285794B2, “Hernia repair device and methods” (priority 2016, dated 2019).

What was measured:
[1] = rabbit study with cutaneous injection (toxicity, irritation, skin sensitization); format: in vivo
fungi such as Candida = conditions: cited from earlier work
[2] = test system: Gram-positive bacteria, including MRSA, MRSE and Mycobacterium tuberculosis; conditions: cited from earlier work
[3] = test system: peri-implant capsular scarring; assay: silicone discs impregnated with salinomycin placed submuscular in mice, Masson's trichrome staining; format: in vivo, mouse
Text: Salinomycin can also be used effectively as a small molecule coating on silicone or temporary dressings such as PermeaDerm. […] In this study, silicone discs were impregnated with salinomycin or a control solvent and placed submuscular in mice. Surrounding tissue was harvested at 16 weeks and tissue sections were stained with Masson's trichrome.

Gram-negative bacteria = conditions: cited from earlier work
[4] = test system: myofibroblast function (cellular contraction); format: cell-based
Text: These novel studies highlight the potential of salinomycin to serve as the basis for new anti-scarring agents.

[5] = test system: myofibroblast (scar cell) formation; assay: TGFβ-induced myofibroblast formation (expression of αSMA, calponin and collagen); format: cell-based; conditions: hallmarks of myofibroblasts
Text: Therapeutic options to treat excessive scarring are limited and most are not proven to be effective. Salinomycin is a novel small molecule that blocks myofibroblast (scar cell) formation.

[6] = test system: human mesenchymal stem cells, human fibroblasts and fibroblasts from mouse, cat and pig; assay: cell culture studies of myofibroblast formation and function; format: cell-based

SMILES: CC[C@@H](C(=O)[C@@H](C)[C@@H](O)[C@H](C)[C@@H]1O[C@@H]([C@@H](CC)C(=O)O)CC[C@@H]1C)[C@H]1O[C@]2(C=C[C@@H](O)[C@]3(CC[C@@](C)([C@H]4CC[C@](O)(CC)[C@H](C)O4)O3)O2)[C@H](C)C[C@@H]1C [Salinomycin]
- irritation ([1]; in vivo): non-irritating
- reactivity (signs of erythema or edema) ([1]; in vivo): non-reactive
- skin sensitization ([1]; in vivo): do not cause skin sensitization
- toxicity ([1]; low doses required for anti-scarring activity, cutaneous injection): non toxic
- activity against fungi (fungi such as Candida): inactive
- antimicrobial activity against Gram-positive bacteria [2]: high antimicrobial activity
- peri-implant capsular scarring ([3]; silicone implants impregnated with 1 micromolar coating solution, mouse): dramatically reduce
- scar formation (capsule thickness) ([3]; submuscular silicone discs in mice, tissue harvested at 16 weeks, Masson's trichrome): significantly reduced scar formation
- activity against Gram-negative bacteria (Gram-negative bacteria): inactive
- myofibroblast function (cellular contraction) [4]: effectively blocks
- viability [4]: without affecting viability
- ability of TGFβ to induce expression of αSMA, calponin and collagen [5]: potently blocks
- doses that block myofibroblast formation and function [6]: 50 to 200 nM
